Measured values: US20230089867A1, “CYCLIC PENTAMER COMPOUNDS AS PROPROTEIN CONVERTASE SUBTILISIN/KEXIN TYPE 9 (PCSK9) INHIBITORS FOR THE TREATMENT OF METABOLIC DISORDER” (Novartis AG, priority 2018, published 2023)

Target: human PCSK9 (Homo sapiens, UniProt Q8NBP7)
Test: PCSK9 ligand binding TR-FRET assay (interference with binding of human PCSK9 to human LDLR)
Conditions: for Max % inhibition: PCSK9 FRET assay, efficacy (Amax), 100% = 1 uM unlabeled human PCSK9, 0% = DMSO; for IC50: TR-FRET, human PCSK9 Alexa Fluor 647 / human LDLR extracellular domain-Europium Kryptate, read-out: PCSK9 FRET Assay IC50
How it was run: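 Threefold compound dilutions were pre-incubated 30 min with PCSK9, after which 4 nM Europium Kryptate-tagged human LDLR ectodomain was added for a further 2 h.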

Chain of human PCSK9 (Q8NBP7 153-692): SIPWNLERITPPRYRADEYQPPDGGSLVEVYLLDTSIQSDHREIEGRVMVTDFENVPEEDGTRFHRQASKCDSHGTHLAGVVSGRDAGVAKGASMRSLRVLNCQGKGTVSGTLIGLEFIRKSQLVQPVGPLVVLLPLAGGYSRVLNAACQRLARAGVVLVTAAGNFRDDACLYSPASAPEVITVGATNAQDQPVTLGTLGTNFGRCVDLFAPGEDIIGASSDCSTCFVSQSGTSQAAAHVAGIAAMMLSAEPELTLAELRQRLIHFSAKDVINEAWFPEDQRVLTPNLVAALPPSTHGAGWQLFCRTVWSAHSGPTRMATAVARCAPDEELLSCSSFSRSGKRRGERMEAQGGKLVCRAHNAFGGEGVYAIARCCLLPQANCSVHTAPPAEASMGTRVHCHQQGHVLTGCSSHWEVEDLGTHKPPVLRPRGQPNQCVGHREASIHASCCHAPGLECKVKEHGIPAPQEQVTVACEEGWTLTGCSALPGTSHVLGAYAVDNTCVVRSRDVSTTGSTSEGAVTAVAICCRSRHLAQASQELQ
Chain of human PCSK9 (Q8NBP7 31-152 partner limits assumed): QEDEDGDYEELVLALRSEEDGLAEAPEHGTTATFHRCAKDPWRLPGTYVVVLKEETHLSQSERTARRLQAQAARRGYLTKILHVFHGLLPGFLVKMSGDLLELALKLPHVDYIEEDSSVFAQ

COC[C@@H]1NC(=O)[C@H](CCCN2CCOCC2)N(Cc2ccc(Cl)cc2Oc2ccc(-c3cnc(CN(C)C)n3C)cc2)C(=O)C[C@@H](Cc2ccccc2)C(=O)N(C)[C@@H](C)[C@H](C)NC(=O)C[C@H](Cc2ccc(Cl)cc2)N(C)C1=O [Compound 283, (2S,5S,8S,12S,13S,16R)-16-benzyl-1-(4-chloro-2-(4-(2-((dimethylamino)methyl)-1-methyl-1H-imidazol-5-yl)phenoxy)benzyl)-8-(4-chlorobenzyl)-5-(methoxymethyl)-7,12,13,14-tetramethyl-2-(3-morpholinopropyl)-1,4,7,11,14-pentaazacyclooctadecane-3,6,10,15,18-pentaone]
Max % inhibition: 105.87% | IC50: 1.6 nM

COC[C@@H]1NC(=O)[C@H](C)N(Cc2ccc(F)cc2Oc2ccc(-c3cnc(CN(C)C)n3C)cc2)C(=O)C[C@@H](Cc2ccccc2)C(=O)N(C)[C@@H](C)CNC(=O)C[C@H](Cc2ccc(Cl)cc2)N(C)C1=O [Compound 199, (2S,5S,8S,13S,16R)-16-benzyl-8-(4-chlorobenzyl)-1-(2-(4-(2-((dimethylamino)methyl)-1-methyl-1H-imidazol-5-yl)phenoxy)-4-fluorobenzyl)-5-(methoxymethyl)-2,7,13,14-tetramethyl-1,4,7,11,14-pentaazacyclooctadecane-3,6,10,15,18-pentaone]
Max % inhibition: 100.29% | IC50: 24.8 nM

CCOC(=O)CCCN(CCCC(=O)OCC)CCC[C@H]1C(=O)N[C@@H](COC)C(=O)N(C)[C@@H](Cc2ccc(Cl)cc2)CC(=O)N[C@H]2CCCC[C@@H]2N(C)C(=O)[C@H](Cc2ccccc2)CC(=O)N1Cc1ccc(Cl)cc1Oc1ccc(-c2cnc(CN(C)C)n2C)cc1 [Compound 267, diethyl 4,4′-((3-((4S,7S,10S,14R,16aS,20aS)-14-benzyl-11-(4-chloro-2-(4-(2-((dimethylamino)methyl)-1-methyl-1H-imidazol-5-yl)phenoxy)benzyl)-4-(4-chlorobenzyl)-7-(methoxymethyl)-5,16-dimethyl-2,6,9,12,15-pentaoxodocosahydrobenzo[l][1,4,7,11,14]pentaazacyclooctadecin-10-yl)propyl)azanediyl)dibutanoate]
Max % inhibition: 93.76% | IC50: 7.1 nM

COC[C@@H]1NC(=O)[C@H](C)N(Cc2ccc(F)cc2Oc2ccc(-c3cnc(CN(C)C)n3C)cc2)C(=O)C[C@@H](Cc2ccccc2)C(=O)N(C)[C@H]2CCCC[C@@H]2NC(=O)C[C@H](Cc2ccc(Cl)cc2)N(C)C1=O [Compound 48, (4S,7S,10S,14R,16aS,20aS)-14-benzyl-4-(4-chlorobenzyl)-11-(2-(4-(2-((dimethylamino)methyl)-1-methyl-1H-imidazol-5-yl)phenoxy)-4-fluorobenzyl)-7-(methoxymethyl)-5,10,16-trimethylhexadecahydrobenzo[l][1,4,7,11,14]pentaazacyclooctadecine-2,6,9,12,15(3H)-pentaone]
Max % inhibition: 87.82% | IC50: 4.8 nM

COC[C@@H]1NC(=O)[C@H](C)N(Cc2ccc(Cl)cc2Oc2ccc(-c3cnc(CN(C)C)n3C)cc2)C(=O)C[C@@H](Cc2ccccc2)C(=O)N(C)[C@H]2C[C@H]2NC(=O)C[C@H](Cc2ccc(Cl)cc2)N(C)C1=O [Compound 247, (1R,5S,8S,11S,15R,18S)-15-benzyl-12-(4-chloro-2-(4-(2-((dimethylamino)methyl)-1-methyl-1H-imidazol-5-yl)phenoxy)benzyl)-5-(4-chlorobenzyl)-8-(methoxymethyl)-6,11,17-trimethyI-2,6,9,12,17-pentaazabicyclo[16.1.0]nonadecane-3,7,10,13,16-pentaone]
Max % inhibition: 98.86% | IC50: 33.2 nM

COC[C@@H]1NC(=O)[C@H](C)N(Cc2ccc(Cl)cc2Oc2ccc(-c3cnc(C4CCCN4C)n3C)cc2)C(=O)C[C@@H](Cc2ccccc2)C(=O)N(C)[C@@H](C)CNC(=O)C[C@H](Cc2ccc(Cl)cc2)N(C)C1=O (stereo partly drawn) [Compound 28, (2S,5S,8S,13S,16R)-16-benzyl-1-(4-chloro-2-(4-(1-methyl-2-(1-methylpyrrolidin-2-yl)-1H-imidazol-5-yl)phenoxy)benzyl)-8-(4-chlorobenzyl)-5-(methoxymethyl)-2,7,13,14-tetramethyl-1,4,7,11,14-pentaazacyclooctadecane-3,6,10,15,18-pentaone]
Max % inhibition: 102.04% | IC50: 3.6 nM

COC[C@@H]1NC(=O)[C@H](C)N(Cc2ccc(Cl)cc2Oc2ccc(-c3cnc(CN(C)C)n3C)cc2)C(=O)C[C@@H](Cc2ccccn2)C(=O)N(C)[C@@H](C)[C@H](C)NC(=O)C[C@H](Cc2ccc(Cl)cc2)N(C)C1=O [Compound 295, (2S,5S,8S,12S,13S,16R)-1-(4-chloro-2-(4-(2-((dimethylamino)methyl)-1-methyl-1H-imidazol-5-yl)phenoxy)benzyl)-8-(4-chlorobenzyl)-5-(methoxymethyl)-2,7,12,13,14-pentamethyl-16-(pyridin-2-ylmethyl)-1,4,7,11,14-pentaazacyclooctadecane-3,6,10,15,18-pentaone]
Max % inhibition: 101.64% | IC50: 1.8 nM

COC[C@@H]1NC(=O)[C@H](CCCNC(=O)OC(C)(C)C)N(Cc2ccc(Cl)cc2Oc2ccc(-c3cnc(CN(C)C)n3C)cc2)C(=O)C[C@@H](Cc2ccccc2)C(=O)N(C)[C@@H](C)CNC(=O)C[C@H](Cc2ccc(Cl)cc2)N(C)C1=O [Compound 4, tert-butyl (3-((2S,5S,8S,13S,16R)-16-benzyl-1-(4-chloro-2-(4-(2-((dimethylamino)methyl)-1-methyl-1H-imidazol-5-yl)phenoxy)benzyl)-8-(4-chlorobenzyl)-5-(methoxymethyl)-7,13,14-trimethyl-3,6,10,15,18-pentaoxo-1,4,7,11,14-pentaazacyclooctadecan-2-yl)propyl)carbamate]
Max % inhibition: 97.50% | IC50: 2.9 nM

COC[C@@H]1NC(=O)[C@H](C)N(Cc2ccc(Cl)cc2Oc2ccc(-c3cnc(CN4CCCC4)n3C)cc2)C(=O)C[C@@H](Cc2ccn(C(F)F)n2)C(=O)N(C)[C@@H](C)CNC(=O)C[C@H](Cc2ccc(Cl)cc2)N(C)C1=O [Compound 63, (2S,5S,8S,13S)-1-(4-chloro-2-(4-(1-methyl-2-(pyrrolidin-1-ylmethyl)-1H-imidazol-5-yl)phenoxy)benzyl)-8-(4-chlorobenzyl)-16-((1-(difluoromethyl)-1H-pyrazol-3-yl)methyl)-5-(methoxymethyl)-2,7,13,14-tetramethyl-1,4,7,11,14-pentaazacyclooctadecane-3,6,10,15,18-pentaone]
Max % inhibition: 103.93% | IC50: 87.3 nM

COC[C@@H]1NC(=O)[C@H](C)N(Cc2ccc(Cl)cc2Oc2ccc(-n3cnc(CN4CCOCC4)c3C)cc2)C(=O)C[C@@H](Cc2ccccc2)C(=O)N(C)[C@H]2CCCC[C@@H]2NC(=O)C[C@H](Cc2ccc(Cl)cc2)N(C)C1=O [Compound 266, (4S,7S,10S,14R,16aS,20aS)-14-benzyl-11-(4-chloro-2-(4-(5-methyl-4-(morpholinomethyl)-1H-imidazol-1-yl)phenoxy)benzyl)-4-(4-chlorobenzyl)-7-(methoxymethyl)-5,10,16-trimethylhexadecahydrobenzo[l][1,4,7,11,14]pentaazacyclooctadecine-2,6,9,12,15(3H)-pentaone]
Max % inhibition: 106.30% | IC50: 1.9 nM

COC[C@@H]1NC(=O)[C@H](C)N(Cc2ccc(Cl)cc2Oc2ccc(-c3cnc([C@@H](C)N4CCCC4)n3C)cc2)C(=O)C[C@@H](Cc2ccccc2)C(=O)N(C)[C@H]2CCCC[C@@H]2NC(=O)C[C@H](Cc2ccc(Cl)cc2)N(C)C1=O [Compound 152, (4S,7S,10S,14R,16aS,20aS)-14-benzyl-11-(4-chloro-2-(4-(1-methyl-2-((R)-1-(pyrrolidin-1-yl)ethyl)-1H-imidazol-5-yl)phenoxy)benzyl)-4-(4-chlorobenzyl)-7-(methoxymethyl)-5,10,16-trimethylhexadecahydrobenzo[l][1,4,7,11,14]pentaazacyclooctadecine-2,6,9,12,15(3H)-pentaone]
Max % inhibition: 107.64% | IC50: 1.2 nM

COC[C@@H]1NC(=O)[C@H](CCCN2CC(F)(F)C(F)(F)C2)N(Cc2ccc(Cl)cc2Oc2ccc(-c3cnc(CN(C)C)n3C)cc2)C(=O)C[C@@H](Cc2ccccc2)C(=O)N(C)[C@H]2CCCC[C@@H]2NC(=O)C[C@H](Cc2ccc(Cl)cc2)N(C)C1=O [Compound 254, (4S,7S,10S,14R,16aS,20aS)-14-benzyl-11-(4-chloro-2-(4-(2-((dimethylamino)methyl)-1-methyl-1H-imidazol-5-yl)phenoxy)benzyl)-4-(4-chlorobenzyl)-7-(methoxy-methyl)-5,16-dimethyl-10-(3-(3,3,4,4-tetrafluoropyrrolidin-1-yl)propyl)hexadecahydro-benzo[l][1,4,7,11,14]pentaazacyclooctadecine-2,6,9,12,15(3H)-pentaone]
Max % inhibition: 102.70% | IC50: 3 nM

C[C@H]1CNC(=O)C[C@H](Cc2ccc(Cl)cc2)N(C)C(=O)[C@H](CO)NC(=O)[C@H](C)N(Cc2ccc(Cl)cc2Oc2ccc3c(c2)C(=O)N(C2CCN(CC4CC4)CC2)C3)C(=O)C[C@@H](Cc2ccccc2)C(=O)N1C [Compound 139, (2S,5S,8S,13S,16R)-16-benzyl-1-(4-chloro-2-((2-(1-(cyclopropylmethyl)piperidin-4-yl)-3-oxoisoindolin-5-yl)oxy)benzyl)-8-(4-chlorobenzyl)-5-(hydroxymethyl)-2,7,13,14-tetramethyl-1,4,7,11,14-pentaazacyclooctadecane-3,6,10,15,18-pentaone]
Max % inhibition: 65.69% | IC50: 5.7 nM

COC[C@@H]1NC(=O)[C@H](C)N(Cc2ccc(Cl)cc2Oc2ccc(-c3cnc(OC)n3C)cc2)C(=O)C[C@@H](Cc2ccccc2)C(=O)N(C)[C@@H](C)CNC(=O)C[C@H](Cc2ccc(Cl)cc2)N(C)C1=O [Compound 197, (2S,5S,8S,13S,16R)-16-benzyl-1-(4-chloro-2-(4-(2-methoxy-1-methyl-1H-imidazol-5-yl)phenoxy)benzyl)-8-(4-chlorobenzyl)-5-(methoxymethyl)-2,7,13,14-tetramethyl-1,4,7,11,14-pentaazacyclooctadecane-3,6,10,15,18-pentaone]
Max % inhibition: 72.51% | IC50: 17.4 nM
